# Laboratory results: ChEMBL document CHEMBL5137080, “Discovery of Novel 7-Hydroxy-5-oxo-4,5-dihydrothieno[3,2-b]pyridine-6-carboxamide Derivatives with Potent and Selective Antifungal Activity against Cryptococcus Species” (J Med Chem, 2022)
# The source made the active and inactive calls. The rule behind the calls is not given here.
# Tests used:
# [1] = tested on: Cryptococcus neoformans; experiment: Antifungal activity against Cryptococcus neoformans H99 assessed as fungal growth inhibition incubated for 72 hrs in presence of P163-0892 by broth microdilution method; format: functional
# [2] = tested on: Cryptococcus gattii species complex; experiment: Antifungal activity against Cryptococcus gattii E566 assessed as fungal growth inhibition incubated for 72 hrs in presence of P163-0892 by broth microdilution method; format: functional
# [3] = tested on: Pichia kudriavzevii; experiment: Antifungal activity against Candida krusei ATCC2340 assessed as fungal growth inhibition incubated for 48 hrs in presence of P163-0892 by broth microdilution method; format: functional
# [4] = tested on: Cryptococcus neoformans; experiment: Antifungal activity against Cryptococcus neoformans clinical isolate HN17 assessed as fungal growth inhibition incubated for 72 hrs in presence of P163-0892 by broth microdilution method; format: functional
# [5] = tested on: Cryptococcus neoformans; experiment: Antifungal activity against Cryptococcus neoformans clinical isolate HN19 assessed as fungal growth inhibition incubated for 72 hrs in presence of P163-0892 by broth microdilution method; format: functional
# [6] = tested on: Cryptococcus neoformans; experiment: Antifungal activity against Cryptococcus neoformans clinical isolate 443 assessed as fungal growth inhibition incubated for 72 hrs in presence of P163-0892 by broth microdilution method; format: functional
# [7] = tested on: Cryptococcus gattii species complex; experiment: Antifungal activity against Cryptococcus gattii clinical isolate SCZ20024 assessed as fungal growth inhibition incubated for 72 hrs in presence of P163-0892 by broth microdilution method; format: functional
# [8] = tested on: Pichia kudriavzevii; experiment: Synergistic antifungal activity against Candida krusei ATCC2340 assessed as fractional inhibitory concentration index incubated for 48 hrs in presence of P163-0892 by broth microdilution method; format: functional
# [9] = tested on: Cryptococcus neoformans; experiment: Synergistic antifungal activity against Cryptococcus neoformans clinical isolate 56992 assessed as fractional inhibitory concentration index incubated for 72 hrs in presence of P163-0892 by broth microdilution method; format: functional
# [10] = tested on: Cryptococcus neoformans; experiment: Synergistic antifungal activity against Cryptococcus neoformans clinical isolate HN17 assessed as fractional inhibitory concentration index incubated for 72 hrs in presence of P163-0892 by broth microdilution method; format: functional
# [11] = tested on: Cryptococcus neoformans; experiment: Synergistic antifungal activity against Cryptococcus neoformans clinical isolate SH68 assessed as fractional inhibitory concentration index incubated for 72 hrs in presence of P163-0892 by broth microdilution method; format: functional
# [12] = tested on: Cryptococcus gattii species complex; experiment: Synergistic antifungal activity against Cryptococcus gattii clinical isolate SCZ20024 assessed as fractional inhibitory concentration index incubated for 72 hrs in presence of P163-0892 by broth microdilution method; format: functional
# [13] = tested on: Cryptococcus neoformans; experiment: Antifungal activity against Cryptococcus neoformans H99 infected in Wax moth larvae assessed as reduction on fungal burden at 10 mg/kg measured after 9 days in presence of P163-0892 by 10 fold serial dilution method; format: functional; conditions: time 9 day
# [14] = tested on: Cryptococcus gattii species complex; experiment: Antifungal activity against Cryptococcus gattii E566 assessed as fungal growth inhibition incubated for 72 hrs in presence of Fluconazole by broth microdilution method; format: functional
# [15] = tested on: Cryptococcus deuterogattii; experiment: Antifungal activity against Cryptococcus gattii WM178 assessed as fungal growth inhibition incubated for 72 hrs in presence of Fluconazole by broth microdilution method; format: functional, Cryptococcus gattii species complex
# [16] = tested on: Nakaseomyces glabratus; experiment: Antifungal activity against Candida glabrata ATCC1182 assessed as fungal growth inhibition incubated for 48 hrs in presence of Fluconazole by broth microdilution method; format: functional
# [17] = tested on: Cryptococcus neoformans; experiment: Antifungal activity against Cryptococcus neoformans clinical isolate 56992 assessed as fungal growth inhibition incubated for 72 hrs in presence of Fluconazole by broth microdilution method; format: functional
# [18] = tested on: Cryptococcus neoformans; experiment: Antifungal activity against Cryptococcus neoformans clinical isolate HN17 assessed as fungal growth inhibition incubated for 72 hrs in presence of Fluconazole by broth microdilution method; format: functional
# [19] = tested on: Cryptococcus neoformans; experiment: Antifungal activity against Cryptococcus neoformans clinical isolate HN19 assessed as fungal growth inhibition incubated for 72 hrs in presence of Fluconazole by broth microdilution method; format: functional
# [20] = tested on: Cryptococcus neoformans; experiment: Antifungal activity against Cryptococcus neoformans clinical isolate 443 assessed as fungal growth inhibition incubated for 72 hrs in presence of Fluconazole by broth microdilution method; format: functional
# [21] = tested on: Cryptococcus neoformans; experiment: Antifungal activity against Cryptococcus neoformans clinical isolate 444 assessed as fungal growth inhibition incubated for 72 hrs in presence of Fluconazole by broth microdilution method; format: functional
# [22] = tested on: Cryptococcus neoformans; experiment: Antifungal activity against Cryptococcus neoformans clinical isolate 445 assessed as fungal growth inhibition incubated for 72 hrs in presence of Fluconazole by broth microdilution method; format: functional
# [23] = tested on: Cryptococcus gattii species complex; experiment: Antifungal activity against Cryptococcus gattii clinical isolate SCZ20031 assessed as fungal growth inhibition incubated for 72 hrs in presence of Fluconazole by broth microdilution method; format: functional
# [24] = tested on: Candida parapsilosis; experiment: Synergistic antifungal activity against Candida parapsilosis ATCC22019 assessed as fractional inhibitory concentration index incubated for 48 hrs in presence of Fluconazole by broth microdilution method; format: functional
# [25] = tested on: Cryptococcus neoformans; experiment: Synergistic antifungal activity against Cryptococcus neoformans clinical isolate HN1 assessed as fractional inhibitory concentration index incubated for 72 hrs in presence of Fluconazole by broth microdilution method; format: functional
# [26] = tested on: Cryptococcus neoformans; experiment: Synergistic antifungal activity against Cryptococcus neoformans clinical isolate HN17 assessed as fractional inhibitory concentration index incubated for 72 hrs in presence of Fluconazole by broth microdilution method; format: functional
# [27] = tested on: Cryptococcus neoformans; experiment: Synergistic antifungal activity against Cryptococcus neoformans clinical isolate HN19 assessed as fractional inhibitory concentration index incubated for 72 hrs in presence of Fluconazole by broth microdilution method; format: functional
# [28] = tested on: Cryptococcus neoformans; experiment: Synergistic antifungal activity against Cryptococcus neoformans clinical isolate BJ3 assessed as fractional inhibitory concentration index incubated for 72 hrs in presence of Fluconazole by broth microdilution method; format: functional
# [29] = tested on: Cryptococcus gattii species complex; experiment: Synergistic antifungal activity against Cryptococcus gattii clinical isolate SCZ20031 assessed as fractional inhibitory concentration index incubated for 72 hrs in presence of Fluconazole by broth microdilution method; format: functional
# [30] = tested on: Cryptococcus deuterogattii; experiment: Antifungal activity against Cryptococcus gattii WM178 assessed as reduction on fungal growth at 2 ug/ml incubated for 48 hrs by plate reader assay; format: functional, Cryptococcus gattii species complex; parameters: scale not given: the % may be the effect or the level left; conditions: dose 2 µg/ml
# [31] = tested on: Cryptococcus neoformans; experiment: Antifungal activity against Cryptococcus neoformans H99 assessed as reduction on fungal growth at 8 ug/ml incubated for 48 hrs by plate reader assay; format: functional, organism-based; conditions: dose 8.0 µg/ml
# [32] = tested on: Cryptococcus deuterogattii; experiment: Antifungal activity against Cryptococcus gattii WM178 assessed as reduction on fungal growth at 8 ug/ml incubated for 48 hrs by plate reader assay; format: functional, organism-based; conditions: Cryptococcus gattii species complex, dose 8.0 µg/ml
# [33] = C0 in Sprague-Dawley rat at 2 mg/kg,iv by LC-MS/MS analysis; format: ADME, organism-based; conditions: in vivo
# [34] = Half life in Sprague-Dawley rat at 2 mg/kg,iv by LC-MS/MS analysis; format: ADME, organism-based; conditions: in vivo
# [35] = Cmax in Sprague-Dawley rat at 5 mg/kg,po by LC-MS/MS analysis; format: ADME, organism-based; parameters: dose 5 mg/kg, route po; conditions: in vivo
# [36] = Tmax in Sprague-Dawley rat at 5 mg/kg,po by LC-MS/MS analysis; format: ADME, organism-based; conditions: in vivo
# [37] = MRT (0 to t) in Sprague-Dawley rat at 5 mg/kg,po by LC-MS/MS analysis; format: ADME, organism-based; conditions: in vivo
# [38] = Cytotoxicity against rabbit RBC assessed as cell growth inhibition incubated for 24 hrs by CCK-8 assay; format: toxicity, cell-based, Oryctolagus cuniculus, Erythrocyte; conditions: red blood cells
# [39] = Selectivity index, ratio of IC50 for human HUVEC to MIC for antifungal activity against Cryptococcus neoformans; format: toxicity; conditions: HUVEC cells, read-out: Selectivity Index
# [40] = Selectivity index, ratio of IC50 for human Caco-2 to MIC for antifungal activity against Cryptococcus neoformans; format: toxicity; conditions: Caco-2 cells, read-out: Selectivity Index
smiles,measurement,setting,value
OC(Cn1cncn1)(Cn1cncn1)c1ccc(F)cc1F [FLUCONAZOLE],MIC,[1],2 µg/mL
same,MIC,[2],0.5 µg/mL
same,MIC,[3],32 µg/mL
same,MIC,[4],0.5 µg/mL
same,MIC,[5],1 µg/mL
same,MIC,[6],1 µg/mL
same,MIC,[7],1 µg/mL
same,fractional inhibitory concentration index (FICI),[8],0.563
same,fractional inhibitory concentration index (FICI),[9],0.25
same,fractional inhibitory concentration index (FICI),[10],0.156
same,fractional inhibitory concentration index (FICI),[11],0.25
same,fractional inhibitory concentration index (FICI),[12],0.313
same,Activity,[13],4.8 log10CFU/g
CCCCNC(=O)c1c(O)c2sccc2n(Cc2ccccc2)c1=O,MIC,[14],0.0313 µg/mL
same,MIC,[15],0.0625 µg/mL
same,MIC,[16],16 µg/mL
same,MIC,[17],0.125 µg/mL
same,MIC,[18],0.0313 µg/mL
same,MIC,[19],0.0313 µg/mL
same,MIC,[20],0.0313 µg/mL
same,MIC,[21],0.0156 µg/mL
same,MIC,[22],0.125 µg/mL
same,MIC,[23],0.125 µg/mL
same,fractional inhibitory concentration index (FICI),[24],0.625
same,fractional inhibitory concentration index (FICI),[25],0.125
same,fractional inhibitory concentration index (FICI),[26],0.156
same,fractional inhibitory concentration index (FICI),[27],0.281
same,fractional inhibitory concentration index (FICI),[28],0.188
same,fractional inhibitory concentration index (FICI),[29],0.25
same,Activity,[30],45.5%
same,Activity,[31],Active
same,Activity,[32],Active
same,C0,[33],2460 ng/mL
same,t1/2,[34],7.61 h
same,Cmax,[35],2.97 ng/mL
same,Tmax,[36],3.17 min
same,MRT last,[37],3.83 h
same,IC50 at 24 h,[38],> 256 µg/mL
same,selectivity ratio,[39],> 256
same,selectivity ratio,[40],> 256
